# Where two headings read alike, the source gives them in different places.
# Key:
# [1] = target: GSK3α (GST-full length GSK3α) (Homo sapiens (Human), UniProt P49840); test: GSK3α TR-FRET kinase assay; assay type: biochemical
# Method in brief: (§1)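 1 nM GST-GSK3α/β + cpd, 30 min preinc; add 200 nM biotin-pS645 GS(631-650) peptide + ATP (α 4 μM / β 2 μM, or 1 mM); 100 min RT, 50 mM Tris pH 7.5, 20 mM MgCl2, 1% DMSO; EDTA stop; SA-d2/Tb-pSer641 Ab 60 min; 665/615 ratio → IC50.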
# [2] = target: GSK3b (GST-full length GSK3b) (Homo sapiens (Human), UniProt P49841); test: GSK3b TR-FRET kinase assay; assay type: biochemical
# GSK3b (GST-full length GSK3b), sequence (P49841 whole entry): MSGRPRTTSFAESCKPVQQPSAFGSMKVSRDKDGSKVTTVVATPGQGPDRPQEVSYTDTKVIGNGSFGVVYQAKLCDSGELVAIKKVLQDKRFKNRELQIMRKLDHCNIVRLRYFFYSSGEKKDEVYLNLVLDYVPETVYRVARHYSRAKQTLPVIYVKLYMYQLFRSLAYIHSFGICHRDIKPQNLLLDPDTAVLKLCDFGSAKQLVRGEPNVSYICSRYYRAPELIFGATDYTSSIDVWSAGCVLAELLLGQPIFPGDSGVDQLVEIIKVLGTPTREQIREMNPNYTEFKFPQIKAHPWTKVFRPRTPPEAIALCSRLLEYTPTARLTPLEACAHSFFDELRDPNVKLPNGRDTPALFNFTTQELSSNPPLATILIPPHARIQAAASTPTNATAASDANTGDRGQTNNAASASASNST
# Method in brief: as §1
# [3] = 1 nM GSK3α, 4 μM ATP, 30 minute preincubation, Table 16, read-out: GSK3-A TR-FRET BIOCHEMICAL (TR-FRET), IC50
# [4] = 1 nM GSK3b, 2 μM ATP, 30 minute preincubation, Table 16, read-out: GSK3-B TR-FRET BIOCHEMICAL (TR-FRET), IC50
# [5] = read-out: GSK3-A (TR-FRET 1 mM ATP), GMean, IC50, 1 mM ATP, geometric mean
# [6] = read-out: GSK3-B (TR-FRET 1 mM ATP), GMean, IC50, 1 mM ATP, geometric mean
# [7] = 1 nM GSK3α, 4 μM ATP, 30 minute preincubation, Table 16, read-out: GSK3-A TR-FRET BIOCHEMICAL (TR-FRET)
# [8] = 1 nM GSK3b, 2 μM ATP, 30 minute preincubation, Table 16, read-out: GSK3-B TR-FRET BIOCHEMICAL (TR-FRET)
# [9] = GSK3-A (TR-FRET 1 mM ATP), GMean, IC50, 1 mM ATP, geometric mean
# [10] = GSK3-B (TR-FRET 1 mM ATP), GMean, IC50, 1 mM ATP, geometric mean
# [11] = 1 nM GSK3α, 4 μM ATP, 30 minute preincubation, read-out: GSK3-A TR-FRET BIOCHEMICAL (TR-FRET), IC50
# [12] = 1 nM GSK3b, 2 μM ATP, 30 minute preincubation, read-out: GSK3-B TR-FRET BIOCHEMICAL (TR-FRET), IC50
# GSK3α (GST-full length GSK3α), sequence (P49840 whole entry): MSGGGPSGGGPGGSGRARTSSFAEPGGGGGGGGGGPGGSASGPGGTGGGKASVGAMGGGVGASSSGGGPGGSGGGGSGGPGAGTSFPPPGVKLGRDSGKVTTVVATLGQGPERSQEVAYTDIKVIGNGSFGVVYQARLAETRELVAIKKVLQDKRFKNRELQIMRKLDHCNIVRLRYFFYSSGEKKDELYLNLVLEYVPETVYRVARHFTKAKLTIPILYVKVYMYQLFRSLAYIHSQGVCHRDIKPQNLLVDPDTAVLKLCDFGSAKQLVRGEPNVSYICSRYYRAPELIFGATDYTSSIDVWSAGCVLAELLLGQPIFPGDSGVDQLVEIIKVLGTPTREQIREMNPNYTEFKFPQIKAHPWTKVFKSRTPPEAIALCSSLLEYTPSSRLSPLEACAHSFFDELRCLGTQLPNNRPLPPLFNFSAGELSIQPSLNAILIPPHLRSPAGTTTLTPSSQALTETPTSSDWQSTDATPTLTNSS
"IC50 [1, 3]","IC50 [2, 4]","IC50 [1, 7]","IC50 [2, 8]",SMILES,further results
100 to 1000 nM,100 to 1000 nM,,,CCC1(c2cccc(N(C)c3cccc(C(F)(F)F)n3)c2)C2=C(CC(C)(C)CC2=O)Nc2n[nH]cc21 (stereo not shown) [Compound 913122],
≤ 100 nM,≤ 100 nM,,,CCC1(c2cccc(S(=O)(=O)c3ccccc3)c2)C2=C(CC(C)(C)CC2=O)Nc2n[nH]cc21 (stereo not shown) [Compound 913123],"IC50 [1, 5]: ≤ 100 nM; IC50 [2, 6]: 100 to 1000 nM"
100 to 1000 nM,100 to 1000 nM,,,CCC1(c2cc(N(C)C(C)=O)ccc2F)C2=C(CC(C)(C)CC2=O)Nc2n[nH]cc21 (stereo not shown) [Compound 913124],
≤ 100 nM,100 to 1000 nM,,,CCC1(c2cccc(N(C)C(=O)CN3CCCC3)c2)C2=C(CC(C)(C)CC2=O)Nc2n[nH]cc21 (stereo not shown) [Compound 913125],
,,≤ 100 nM,100 to 1000 nM,CC1(C)CC(=O)C2=C(C1)Nc1n[nH]cc1C21CCCSCC1 (stereo not shown) [Compound 913126],
≤ 100 nM,≤ 100 nM,,,CC1(C)CC(=O)C2=C(C1)Nc1n[nH]cc1C21CCN(S(=O)(=O)C2CCOCC2)CC1 [Compound 913127],"IC50 [1, 9]: ≤ 100 nM; IC50 [2, 10]: 100 to 1000 nM"
≤ 100 nM,≤ 100 nM,,,CC1(C)CC(=O)C2=C(C1)Nc1n[nH]cc1C21CCN(S(=O)(=O)C2CCCCC2)CC1 [Compound 913128],"IC50 [1, 9]: ≤ 100 nM; IC50 [2, 10]: 100 to 1000 nM"
≤ 100 nM,≤ 100 nM,,,CC(C)S(=O)(=O)N1CCC2(CC1)C1=C(CC(C)(C)CC1=O)Nc1n[nH]cc12 [Compound 913129],"IC50 [1, 9]: ≤ 100 nM; IC50 [2, 10]: 100 to 1000 nM"
100 to 1000 nM,1000 to 5000 nM,,,CCC1(c2cccc(S(=O)(=O)C(C)C)c2)C2=C(CC(C)(C)CC2=O)Nc2n[nH]cc21 (stereo not shown) [Compound 913134],
≤ 100 nM,≤ 100 nM,,,CCC1(c2cccc(S(=O)(=O)C(C)C)c2)C2=C(CC(C)(C)CC2=O)Nc2n[nH]cc21 (stereo not shown) [Compound 913135],"IC50 [1, 5]: ≤ 100 nM; IC50 [2, 6]: 100 to 1000 nM"
≤ 100 nM,100 to 1000 nM,,,Cc1cccc2c1CC[C@]21C2=C(CC(C)(C)CC2=O)Nc2n[nH]cc21 [Compound 913136],
> 5000 nM,> 5000 nM,,,Cc1cccc2c1CC[C@@]21C2=C(CC(C)(C)CC2=O)Nc2n[nH]cc21 [Compound 913137],
,,,,CC1(C)CC(=O)C2=C(C1)Nc1n[nH]cc1[C@]21C[C@@]2(CCN(CC(F)F)C2)C1 [Compound 913139],"IC50 [1, 11]: 100 to 1000 nM; IC50 [2, 12]: 100 to 1000 nM"
≤ 100 nM,100 to 1000 nM,,,CC[C@@]1(c2cccc(N3CCC3(C)C)c2)C2=C(CC(C)(C)CC2=O)Nc2n[nH]cc21 [Compound 913140],
100 to 1000 nM,1000 to 5000 nM,,,CCC1(c2cccc(N3CCC3(C)C)c2)C2=C(CC(C)(C)CC2=O)Nc2n[nH]cc21 (stereo not shown) [Compound 913141],
,,100 to 1000 nM,> 5000 nM,CCC1(c2cccc(C(F)(F)F)c2)C2=C(CNC2=O)Nc2n[nH]cc21 (stereo not shown) [Compound 913156],
,,,,CCC1(c2cccc(C(C)(C)F)c2)C2=C(CCN(C)C2=O)Nc2n[nH]cc21 (stereo not shown) [Compound 913178],"IC50 [1, 11]: 100 to 1000 nM; IC50 [2, 12]: 1000 to 5000 nM"
100 to 1000 nM,1000 to 5000 nM,,,CC1(C)CC(=O)C2=C(C1)Nc1n[nH]cc1[C@]21CO[C@H](C2CC2)C1 [Compound 913184],
,,≤ 100 nM,100 to 1000 nM,CCC1(c2cccc(C(F)(F)F)c2)C2=C(Nc3n[nH]cc31)C(C)(C)N(C)C2=O (stereo not shown) [Compound 913198],
,,100 to 1000 nM,1000 to 5000 nM,CC[C@@H]1C[C@@]2(CO1)C1=C(CC(C)(C)CC1=O)Nc1n[nH]cc12 [Compound 913213],
,,100 to 1000 nM,1000 to 5000 nM,CC[C@H]1C[C@@]2(CO1)C1=C(CC(C)(C)CC1=O)Nc1n[nH]cc12 [Compound 913214],
,,100 to 1000 nM,1000 to 5000 nM,CC[C@@H]1C[C@]2(CO1)C1=C(CC(C)(C)CC1=O)Nc1n[nH]cc12 [Compound 913215],
,,100 to 1000 nM,100 to 1000 nM,CC[C@H]1C[C@]2(CO1)C1=C(CC(C)(C)CC1=O)Nc1n[nH]cc12 [Compound 913216],
≤ 100 nM,100 to 1000 nM,,,CC1(C)CC(=O)C2=C(C1)Nc1n[nH]cc1C21CCCc2ccccc21 (stereo not shown) [Compound 913219],
> 5000 nM,> 5000 nM,,,CC[C@]1(c2cccc(-c3cc(C)nc(C)c3)c2)C2=C(CC(C)(C)CC2=O)Nc2n[nH]cc21 [Compound 913223],
,,,,CCC1(c2cccc(Br)c2)C2=C(CC(C)NC2=O)Nc2n[nH]cc21 (stereo not shown) [Compound 913225],"IC50 [1, 11]: 100 to 1000 nM; IC50 [2, 12]: 1000 to 5000 nM"

"IC50 [1, 3]","IC50 [2, 4]","IC50 [1, 7]","IC50 [2, 8]",SMILES,further results
,,≤ 100 nM,≤ 100 nM,CC1(C)CC(=O)C2=C(C1)Nc1n[nH]cc1C21CCN(S(=O)(=O)c2ccc3c(c2)CCO3)CC1 [Compound 913251],
100 to 1000 nM,100 to 1000 nM,,,CCC1(c2cccc(N(C)c3ccc(OC)nc3)c2)C2=C(CC(C)(C)CC2=O)Nc2n[nH]cc21 (stereo not shown) [Compound 913252],
≤ 100 nM,≤ 100 nM,,,CCC1(c2cccc(NS(C)(=O)=O)c2)C2=C(CC(C)(C)CC2=O)Nc2n[nH]cc21 (stereo not shown) [Compound 913253],
≤ 100 nM,≤ 100 nM,,,CCC1(c2cccc(N(C)c3ccnc(C(F)(F)F)c3)c2)C2=C(CC(C)(C)CC2=O)Nc2n[nH]cc21 (stereo not shown) [Compound 913254],
1000 to 5000 nM,> 5000 nM,,,CCC1(c2cccc(N(C)c3cc(C)nc(C)c3)c2)C2=C(CC(C)(C)CC2=O)Nc2n[nH]cc21 (stereo not shown) [Compound 913256],
≤ 100 nM,≤ 100 nM,,,CCC1(c2cccc(S(=O)(=O)Cc3ccccc3)c2)C2=C(CC(C)(C)CC2=O)Nc2n[nH]cc21 (stereo not shown) [Compound 913258],
,,≤ 100 nM,≤ 100 nM,CC1(C)CC(=O)C2=C(C1)Nc1n[nH]cc1C21CN(S(=O)(=O)C2CC2)C1 [Compound 913259],
,,≤ 100 nM,≤ 100 nM,Cn1ccc(S(=O)(=O)N2CC3(C2)C2=C(CC(C)(C)CC2=O)Nc2n[nH]cc23)n1 [Compound 913260],
,,≤ 100 nM,≤ 100 nM,COc1ccccc1S(=O)(=O)N1CC2(C1)C1=C(CC(C)(C)CC1=O)Nc1n[nH]cc12 [Compound 913261],
,,≤ 100 nM,≤ 100 nM,CC1(C)CC(=O)C2=C(C1)Nc1n[nH]cc1C21CN(S(=O)(=O)c2ccccn2)C1 [Compound 913262],
,,100 to 1000 nM,100 to 1000 nM,CC1(C)CC(=O)C2=C(C1)Nc1n[nH]cc1C21CN(S(=O)(=O)c2ccccc2F)C1 [Compound 913263],
,,≤ 100 nM,≤ 100 nM,CN1CC2(C1)C1=C(CC(C)(C)CC1=O)Nc1n[nH]cc12 [Compound 913264],
> 5000 nM,> 5000 nM,,,CC1(C)CC(=O)C2=C(C1)Nc1n[nH]cc1C21CN(S(=O)(=O)c2cccnc2)C1 [Compound 913265],
≤ 100 nM,≤ 100 nM,,,CCC1(c2cccc(N(c3cccnc3)C3CC3)c2)C2=C(CC(C)(C)CC2=O)Nc2n[nH]cc21 (stereo not shown) [Compound 913274],
≤ 100 nM,≤ 100 nM,,,CCC1(c2cccc(N(C)C(=O)c3cnn(C)c3)c2)C2=C(CC(C)(C)CC2=O)Nc2n[nH]cc21 (stereo not shown) [Compound 913311],"IC50 [1, 5]: > 5000 nM; IC50 [2, 6]: > 5000 nM"
≤ 100 nM,100 to 1000 nM,,,CCC1(c2cccc(Nc3ncccn3)c2)C2=C(CC(C)(C)CC2=O)Nc2n[nH]cc21 (stereo not shown) [Compound 913334],
≤ 100 nM,≤ 100 nM,,,CCC1(c2cccc(-c3ccnc(C)c3C)c2)C2=C(CC(C)(C)CC2=O)Nc2n[nH]cc21 (stereo not shown) [Compound 913347],
≤ 100 nM,100 to 1000 nM,,,CCC1(c2cccc(-c3ccnc(C(F)(F)F)c3)c2)C2=C(CC(C)(C)CC2=O)Nc2n[nH]cc21 (stereo not shown) [Compound 913348],
≤ 100 nM,≤ 100 nM,,,CCC1(c2cccc(-c3ccncc3F)c2)C2=C(CC(C)(C)CC2=O)Nc2n[nH]cc21 (stereo not shown) [Compound 913349],
100 to 1000 nM,≤ 100 nM,,,CCC1(c2cccc(-c3ccnc(C(F)(F)F)c3)c2)C2=C(CC(C)(C)CC2=O)Nc2n[nH]cc21 (stereo not shown) [Compound 913350],"IC50 [1, 5]: ≤ 100 nM; IC50 [2, 6]: 100 to 1000 nM"
≤ 100 nM,≤ 100 nM,,,CCC1(c2cccc(-c3ccncc3C)c2)C2=C(CC(C)(C)CC2=O)Nc2n[nH]cc21 (stereo not shown) [Compound 913351],
≤ 100 nM,≤ 100 nM,,,CCC1(c2cccc(-c3ccnc(O)c3)c2)C2=C(CC(C)(C)CC2=O)Nc2n[nH]cc21 (stereo not shown) [Compound 913352],
,,> 5000 nM,> 5000 nM,CCC1(c2cccc(C(F)(F)F)c2)C2=C(CCCNC2=O)Nc2n[nH]cc21 (stereo not shown) [Compound 913355],
,,≤ 100 nM,≤ 100 nM,CC1(C)CC(=O)C2=C(C1)Nc1n[nH]cc1C21CCC(S(C)(=O)=O)CC1 (stereo not shown) [Compound 913356],
,,,,CCC1(c2cccc(-c3ccnc(C)c3)c2)C2=C(CC(C)NC2=O)Nc2n[nH]cc21 (stereo not shown) [Compound 913357],"IC50 [1, 11]: 100 to 1000 nM; IC50 [2, 12]: 1000 to 5000 nM"
,,,,CCC1(c2cccc(Br)c2)C2=C(CC(C)(C)NC2=O)Nc2n[nH]cc21 (stereo not shown) [Compound 913439],"IC50 [1, 11]: ≤ 100 nM; IC50 [2, 12]: 100 to 1000 nM"

# Source: patent US20250313563A1, “GLYCOGEN SYNTHASE KINASE 3 INHIBITORS AND USES THEREOF” (The Broad Institute, Inc., priority 2022, published 2025)
